# From PubChem BioAssay (NCI)
#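 Grown in 96-well plates, cells were treated for 48 hours with each compound at five concentrations. Insufficient inhibition: endpoint recorded as highest concentration tested. GI50: concentration for 50% inhibition of growth. Definition used: TGI = concentration required for complete inhibition of growth.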
# What was measured:
# Test in all cases: NCI tumour cell line growth inhibition, 48 h
# BT-549 breast = test system: BT-549 breast
# 786-0 renal = test system: 786-0 renal
# SNB-75 CNS = test system: SNB-75 CNS
# KM12 colon = test system: KM12 colon
# SF-268 CNS = test system: SF-268 CNS
# MCF7 breast = test system: MCF7 breast
# HCC-2998 colon = test system: HCC-2998 colon
# NCI-H460 lung = test system: NCI-H460 lung
# UACC-62 melanoma = test system: UACC-62 melanoma
# CAKI-1 renal = test system: CAKI-1 renal
# RXF 393 renal = test system: RXF 393 renal
# M14 melanoma = test system: M14 melanoma
# SNB-19 CNS = test system: SNB-19 CNS
# NCI-H226 lung = test system: NCI-H226 lung
# HS 578T breast = test system: HS 578T breast
# NCI/ADR-RES ovarian = test system: NCI/ADR-RES ovarian
# UACC-257 melanoma = test system: UACC-257 melanoma
# NCI-H522 lung = test system: NCI-H522 lung
# K-562 leukemia = test system: K-562 leukemia
# HT29 colon = test system: HT29 colon
# LOX IMVI melanoma = test system: LOX IMVI melanoma
# ACHN renal = test system: ACHN renal
# SK-MEL-2 melanoma = test system: SK-MEL-2 melanoma
# SW-620 colon = test system: SW-620 colon
# PC-3 prostate = test system: PC-3 prostate
# CCRF-CEM leukemia = test system: CCRF-CEM leukemia
# MDA-MB-231 breast = test system: MDA-MB-231 breast
# T-47D breast = test system: T-47D breast
# SK-MEL-5 melanoma = test system: SK-MEL-5 melanoma
smiles,measurement,setting,value
ClCCn1c(CCl)nc2ccc(Cl)cc21,GI50,BT-549 breast,277 nM
same,TGI,BT-549 breast,753 nM
same,GI50,786-0 renal,1320 nM
same,TGI,786-0 renal,2940 nM
same,GI50,SNB-75 CNS,1140 nM
same,TGI,SNB-75 CNS,2410 nM
same,GI50,KM12 colon,1910 nM
same,TGI,KM12 colon,4330 nM
same,GI50,SF-268 CNS,1220 nM
same,TGI,SF-268 CNS,2950 nM
same,GI50,MCF7 breast,372 nM
same,TGI,MCF7 breast,2010 nM
same,GI50,HCC-2998 colon,2010 nM
same,TGI,HCC-2998 colon,3870 nM
same,GI50,NCI-H460 lung,955 nM
same,TGI,NCI-H460 lung,4590 nM
same,GI50,UACC-62 melanoma,430 nM
same,TGI,UACC-62 melanoma,1590 nM
same,GI50,CAKI-1 renal,1600 nM
same,TGI,CAKI-1 renal,3200 nM
same,GI50,RXF 393 renal,379 nM
same,TGI,RXF 393 renal,1340 nM
same,GI50,M14 melanoma,466 nM
same,TGI,M14 melanoma,1640 nM
same,GI50,SNB-19 CNS,2330 nM
same,TGI,SNB-19 CNS,7190 nM
same,GI50,NCI-H226 lung,193 nM
same,TGI,NCI-H226 lung,442 nM
same,GI50,HS 578T breast,2060 nM
same,TGI,HS 578T breast,7030 nM
same,GI50,NCI/ADR-RES ovarian,1210 nM
same,TGI,NCI/ADR-RES ovarian,4360 nM
same,GI50,UACC-257 melanoma,1620 nM
same,TGI,UACC-257 melanoma,3490 nM
same,GI50,NCI-H522 lung,185 nM
same,TGI,NCI-H522 lung,363 nM
same,GI50,K-562 leukemia,340 nM
same,TGI,K-562 leukemia,1030 nM
same,GI50,HT29 colon,436 nM
same,TGI,HT29 colon,1390 nM
same,GI50,LOX IMVI melanoma,156 nM
same,TGI,LOX IMVI melanoma,317 nM
same,GI50,ACHN renal,1350 nM
same,TGI,ACHN renal,2720 nM
same,GI50,SK-MEL-2 melanoma,1650 nM
same,TGI,SK-MEL-2 melanoma,3600 nM
same,GI50,SW-620 colon,289 nM
same,TGI,SW-620 colon,1110 nM
same,GI50,PC-3 prostate,1580 nM
same,TGI,PC-3 prostate,3390 nM
same,GI50,CCRF-CEM leukemia,280 nM
same,TGI,CCRF-CEM leukemia,1650 nM
same,GI50,MDA-MB-231 breast,1520 nM
same,TGI,MDA-MB-231 breast,3380 nM
same,GI50,T-47D breast,1860 nM
same,TGI,T-47D breast,4190 nM
same,GI50,SK-MEL-5 melanoma,176 nM
